Measured values published in patent US20030114498A1, “Remedies for malignant tumor-concomitant neurosis and azoor or analogous diseases thereof” (priority 2002, published 2003).
“Also recorded” adds a separate entry of the source.

What was measured:
[1] = tested on: apoptosis caused by CAR; test: Therapeutic effect on cancer-associated neuropathy: ERG in rats given anti-recoverin and anti-hsp70 antibodies into the vitreous body; assay type: in vivo, Lewis rats; conditions: nilvadipine 3.2 mg/kg/day peritoneal for two weeks with antibody infusion into vitreous body; follow-up five weeks; 24 h light; FIG. 1
Experimental: Example of Experiment (Therapeutic Effect on Cancer-Associated Neuropathy)
Test animal: Lewis rats (8 weeks of age) Treatment group 5 animals (10 eyes) Control group 5 animals (10 eyes)
Photoenvironment: Apoptosis (cell death) was induced under light for 24 hours.
Test drugs: Nilvadipine (3.2 mg/kg/day) by peritoneal administration (dissolving solution) polyethylene glycol 400: ethanol:water=1:1:2 Predonine (0.6 μg/kg/day) by intramuscular injection (dissolving solution) PBS (phosphate buffer solution) Cyclosporine A (10 mg/kg/day) by intramuscular injection (dissolving solution) olive oil
Antibodies: anti-recoverin antibody (5 μl/eye) anti-hsp70 antibody (5 μl/eye)
Test drugs were administered for two weeks along with infusion of antibodies into vitreous body of the eye.
Follow-up observation was performed for five weeks after the start of administration. PBS alone was administered to the control group.
In FIG. 1, the vertical axis represents ERG (electroretinogram) amplitude, and the horizontal axis is the lapse of time in weeks. Δ: nilvadipine group; □: predonine group; ⋄: cyclosporin A group; and ◯: control group.

[2] = tested on: AZOOR; test: Clinical case: therapeutic effect on AZOOR, static visual field examination (Humphrey visual field analyzer); assay type: in vivo, human patient; conditions: person
Excerpt: Example of Clinical Trial (Therapeutic Effect on AZOOR)
The patient became aware of dark and blurred vision in the center of their visual field on Sep. 1, 1999, and visited Ohyachi Kyoritsu Eye Clinic on September 4 in the same year. […] ERG was subnormal and normal for the right and left eyes, respectively. […] FAG detected mild leakage of fluorescein from the optic disc of the right eye. In view of these observations, optic nerve disorder was suspected and the patient was made to visit a brain surgeon in the neighborhood to receive CT and MRT examinations. However, no abnormality was found. […] To treat the eye symptom, the clinic prescribed oral medications such as drug for ameliorating circulation for a while, but no improvement of visual field was observed. Thus, on Oct. 1, 1999, the patient was referred to the Department of ophthalmology at Sapporo Medical University, School of Medicine for close examination.
Visual acuity was Vd=1.2 and Vs=1.2. Although pupils were round and equal in size, the right eye was RAPD(+) but no oculomotor abnormalities were observed. […] In the static visual field examination, reduction of the sensitivity in the central visual field was observed.
Oral administration of prednisolone (40 mg/day) was started on Oct. 1, 1999. The patient became aware of dark and blurred vision also in the center of the visual field of their left eye on Oct. 20, 1999. […]

[3] = launched ten years ago; cited from earlier work
[4] = tested on: AZOOR; conditions: reported case, administration for two weeks; cited from earlier work

## COC(=O)C1=C(C#N)NC(C)=C(C(=O)OC(C)C)C1c1cccc([N+](=O)[O-])c1 (centres unmarked) [nilvadipine, isopropyl 6-cyano-5-methoxycarbonyl-2-methyl-4-(3-nitrophenyl)-1,4-di hydropyridine-3-carboxylate ester]
[1]
  ERG (electroretinogram) amplitude, effectiveness compared with the other test drugs: more effective than predonine and cyclosporin A
[2]; two months after start of oral nilvadipine (Depo-Medrol sub-Tenon's injection three days earlier), FIGS. 4 and 5
  static visual field / visual sensitivity after nilvadipine: remarkable improvement of visual sensitivity
[3]
  side effects: no noteworthy serious side effects

## C[C@]12C=CC(=O)C=C1CC[C@@H]1[C@@H]2[C@@H](O)C[C@@]2(C)[C@H]1CC[C@]2(O)C(=O)CO [prednisolone]
[2]; oral prednisolone 40 mg/day reduced to 10 mg/day, FIGS. 2 and 3
  visual field defect under oral prednisolone: no amelioration of the visual field defect; also recorded: could not improve the visual field

## Nc1nc2c(ncn2COCCO)c(=O)[nH]1 [aciclovir]
[4]
  progress of visual field defect in the other eye: stopped
